One block for each compound: values may come before it.
How the values were obtained:
[1] = test system: tetrabenazine-induced ptosis in mice; experiment: Prevention of tetrabenazine-induced sedation and depression in mice (relief of ptosis); format: in vivo, Carworth CF1 S female mice; settings: Mus musculus, 1 h; oral; 5, 25 and 125 mg/kg; tetrabenazine 32 mg/kg i.p. 30 min later; read 30 min after tetrabenazine; groups of 10 female mice; read-out: ptosis ED50, i.e., the dose which blocked ptosis in 50% of the mice
Protocol: This mouse test is predictive of human antidepressant response (Everett, G.M., "The Dopa Response Potentiation Test and Its Use In Screening for Antidepressant Drugs", pp. 164-167 in "Antidepressant Drugs", Proceeding of the First International Symposium, S. Garattini and M. N. G. Dukes, eds., 1967).
Groups of 10 Carworth CF1 S female mice, 18-21 g each, were fasted 1.5 hours and were intubated with a hydroxyguanidine as antagonist to tetrabenazine at oral doses of 5, 25 and 125 mg/kg in 0.20 ml of 1% methyl cellulose (Methocel). Thirty minutes later the mice were challenged with tetrabenazine, 32 mg/kg intraperitoneally (dissolved in 0.20 ml of 0.05M KCl at pH 2.0). One hour after the hydroxyguanidine compound (30 minutes after tetrabenazine) the mice were examined for signs of exploratory activity and ptosis (eye-lid closure). Normal exploratory activity (relief from sedation) was recorded when a mouse lifted by the tail from a group of 10 in a testing box and placed on a stainless steel testing box lid (12.5 inches × 8 inches with 0.33 inch mesh) either turned its head horizontally 30° or moved to the edge of the screen within 10 seconds after being placed on the screen. Relief from ptosis was recorded when exactly 2 seconds after placing the mouse facing the observer, lid closure was less than 50% in both eyes. […]

[2] = Chelation of metal ions in aqueous solutions; format: physicochemical
Protocol: (§1) The 1,1,3-trisubstituted hydroxyguanidines of the invention chelate metal ions in aqueous solutions, and the chelate complexes can then be extracted by a solvent such as 1-butanol. The following is an example.
(§2) Aqueous solutions of cobaltous chloride and cupric acetate were prepared by dissolving 0.5 g in separate 5 ml portions of water. One ml of each solution was mixed with 1 ml of an aqueous methanol solution of 1,3-dimethyl-1-benzyl-2-hydroxyguanidine made by dissolving 0.2 g of the hydroxyguanidine in 5 ml methanol and 5 ml water. The addition was followed by an immediate color change.

[3] = Chelation of cobalt ions (cobaltous chloride) in aqueous solution; format: physicochemical; settings: cobaltous chloride in water mixed with aqueous methanol solution of hydroxyguanidine
Protocol: as §1, §2

[4] = Chelation of copper ions (cupric acetate) in aqueous solution; format: physicochemical; settings: cupric acetate in water mixed with aqueous methanol solution of hydroxyguanidine
Protocol: as §1, §2

[5] = Complex formation with titanium (tetraisopropyl titanate); format: physicochemical; settings: methanol solution of tetraisopropyl titanate

SMILES: CCNC(=NO)N(C)c1ccccc1 [Example 3, 1-Phenyl-1-methyl-3-ethyl-2-hydroxyguanidine]
ED50 [1]: 2.7 mg/kg

SMILES: CCNC(=NO)N(C)Cc1ccccc1 [Example 5, 1-Benzyl-1-methyl-3-ethyl-2-hydroxyguanidine]
ED50 [1]: 19 mg/kg

chelating of metal ions ([2]; aqueous solutions): Chelating also occured
SMILES: CNC(=NO)N(C)c1ccccc1 [Example 2, 1-Phenyl-1,3-dimethyl-2-hydroxyguanidine]

immediate color change of cobalt solution [3]: from red to pink | immediate color change of copper solution [4]: from blue to green
SMILES: CNC(=NO)N(C)Cc1ccccc1 [Example 4, 1-Benzyl-1,3-dimethyl-2-hydroxyguanidine]
complex of titanium with the hydroxyguanidine [5]: a bright yellow complex of titanium with the hydroxyguanidine was formed | extraction of the metal ion from water into 1-butanol ([2]; cobalt and copper solutions shaken with 2-3 ml of 1-butanol): colored organic layers, indicative of extraction of the metal ion from the water
